Measurements taken from the NIST ThermoML archive (doi:10.1016/j.tca.2015.01.022).
Several values for one entry are separate records, joined by “and”; a condition that tells them apart may be missing. Identical values can stand only once. Numbers after ± are expanded uncertainties.

Assay: molar heat capacity at constant pressure
Conditions: 101.33 kPa, Small (less than 1 g) adiabatic calorimetry

CCOS(=O)(=O)[O-].CCn1cc[n+](C)c1 [1-ethyl-3-methylimidazolium ethyl sulfate]
Conditions	molar heat capacity at constant pressure
180.75 K, Glass	245 ± 1.3 J/K/mol
181.34 K, Glass	247.6 ± 1.3 J/K/mol
182.03 K, Glass	250.7 ± 1.3 J/K/mol
182.57 K, Glass	253.8 ± 1.3 J/K/mol
183.25 K, Glass	259.2 ± 1.4 J/K/mol
183.91 K, Glass	266.1 ± 1.4 J/K/mol
184.33 K, Glass	269.6 ± 1.4 J/K/mol
185.05 K, Liquid	286.4 ± 1.5 J/K/mol
185.68 K, Liquid	306.2 ± 1.6 J/K/mol
185.91 K, Liquid	312.8 ± 1.7 J/K/mol
186.66 K, Liquid	340.5 ± 1.8 J/K/mol
187.36 K, Liquid	351.6 ± 1.8 J/K/mol and 351.8 ± 1.8 J/K/mol
188.23 K, Liquid	351.6 ± 1.8 J/K/mol
188.86 K, Liquid	353 ± 1.8 J/K/mol
189.2 K, Liquid	353 ± 1.8 J/K/mol
189.84 K, Liquid	354 ± 1.8 J/K/mol
190 K, Liquid	354.1 ± 1.8 J/K/mol
190.38 K, Liquid	354.4 ± 1.8 J/K/mol
191.46 K, Liquid	354.4 ± 1.8 J/K/mol
192.04 K, Liquid	354.7 ± 1.8 J/K/mol
193.08 K, Liquid	354.7 ± 1.8 J/K/mol
193.85 K, Liquid	354.7 ± 1.8 J/K/mol
194.7 K, Liquid	354.7 ± 1.8 J/K/mol
195.65 K, Liquid	354.9 ± 1.8 J/K/mol
196.33 K, Liquid	354.9 ± 1.8 J/K/mol
197.47 K, Liquid	355.1 ± 1.8 J/K/mol
197.95 K, Liquid	355.1 ± 1.8 J/K/mol
199.29 K, Liquid	355.4 ± 1.8 J/K/mol
199.58 K, Liquid	355.4 ± 1.8 J/K/mol
200 K, Liquid	355.5 ± 1.8 J/K/mol
201.11 K, Liquid	355.6 ± 1.8 J/K/mol
201.27 K, Liquid	355.6 ± 1.8 J/K/mol
201.65 K, Liquid	355.9 ± 1.8 J/K/mol
202.93 K, Liquid	356.1 ± 1.8 J/K/mol
203 K, Liquid	355.9 ± 1.8 J/K/mol
203.57 K, Liquid	356.1 ± 1.8 J/K/mol
204.74 K, Liquid	356.1 ± 1.8 J/K/mol
204.76 K, Liquid	356.6 ± 1.8 J/K/mol
205.5 K, Liquid	356.3 ± 1.8 J/K/mol
206.48 K, Liquid	356.6 ± 1.8 J/K/mol
206.59 K, Liquid	356.8 ± 1.8 J/K/mol
207.44 K, Liquid	356.8 ± 1.8 J/K/mol
208.23 K, Liquid	356.8 ± 1.8 J/K/mol
208.43 K, Liquid	357 ± 1.8 J/K/mol
209.37 K, Liquid	357.3 ± 1.8 J/K/mol
209.97 K, Liquid	357 ± 1.8 J/K/mol
210 K, Liquid	357.2 ± 1.8 J/K/mol
210.26 K, Liquid	357.3 ± 1.8 J/K/mol
211.31 K, Liquid	357.5 ± 1.8 J/K/mol
211.72 K, Liquid	357.5 ± 1.8 J/K/mol
212.11 K, Liquid	357.7 ± 1.8 J/K/mol
213.25 K, Liquid	358 ± 1.8 J/K/mol
213.47 K, Liquid	357.7 ± 1.8 J/K/mol
213.95 K, Liquid	358 ± 1.8 J/K/mol
215.19 K, Liquid	358.2 ± 1.8 J/K/mol
215.23 K, Liquid	358 ± 1.8 J/K/mol
215.8 K, Liquid	358.5 ± 1.8 J/K/mol
217.12 K, Liquid	358.7 ± 1.8 J/K/mol
217.65 K, Liquid	358.7 ± 1.8 J/K/mol
219.06 K, Liquid	359.2 ± 1.8 J/K/mol
219.5 K, Liquid	359.2 ± 1.8 J/K/mol
220 K, Liquid	359.2 ± 1.8 J/K/mol
221 K, Liquid	359.4 ± 1.8 J/K/mol
221.36 K, Liquid	359.6 ± 1.8 J/K/mol
222.94 K, Liquid	359.9 ± 1.8 J/K/mol
223.21 K, Liquid	359.9 ± 1.8 J/K/mol
224.88 K, Liquid	360.3 ± 1.9 J/K/mol
225.07 K, Liquid	360.3 ± 1.9 J/K/mol
226.82 K, Liquid	361.1 ± 1.9 J/K/mol
226.93 K, Liquid	360.8 ± 1.9 J/K/mol
228.76 K, Liquid	361.3 ± 1.9 J/K/mol
228.8 K, Liquid	361.3 ± 1.9 J/K/mol
230 K, Liquid	361.6 ± 1.8 J/K/mol
230.66 K, Liquid	361.8 ± 1.9 J/K/mol
230.7 K, Liquid	361.8 ± 1.9 J/K/mol
232.53 K, Liquid	362.2 ± 1.9 J/K/mol
232.64 K, Liquid	362.2 ± 1.9 J/K/mol
234.39 K, Liquid	362.7 ± 1.9 J/K/mol
234.58 K, Liquid	362.7 ± 1.9 J/K/mol
236.26 K, Liquid	363.2 ± 1.9 J/K/mol
236.53 K, Liquid	363.4 ± 1.9 J/K/mol
238.13 K, Liquid	363.9 ± 1.9 J/K/mol
238.47 K, Liquid	363.9 ± 1.9 J/K/mol
240 K, Liquid	364.3 ± 1.9 J/K/mol
240.01 K, Liquid	364.4 ± 1.9 J/K/mol
240.41 K, Liquid	364.6 ± 1.9 J/K/mol
241.88 K, Liquid	364.8 ± 1.9 J/K/mol
242.36 K, Liquid	365.1 ± 1.9 J/K/mol
